Marks after values point to notes of the source that are not given here.
Assay: Example 2 multiple rising dose inhaled delta-9-THC study: plasma pharmacokinetics
Details: for AUC(0-t) / AUC(0-inf) / Cmax / half-life / Tmax: human, plasma; for AUC(0-t): AUC(0-8)
Procedure: A randomized, double-blind, placebo-controlled, multiple rising dose safety, tolerability, pharmacokinetic and pharmacodynamic study to assess two dose levels of inhaled delta-9-THC was conducted. Dose levels were studied in ascending order. Two consecutive groups (n=9/group) of healthy subjects were studied (Groups I and II). […] There was a lapse of at least 10 days between the groups for interim safety and pharmacokinetic analysis. Two dose levels were studied in ascending order. […] Subjects in each treatment Group (I or II) received single and multiple doses of inhaled delta-9-THC according to the following schedule:
For both dose levels, the first and the last dose of study drug was given under fasted conditions. Subjects were confined to the study site from the evening of Day −2 (Day 1 is the day of administration of the first dose of study drug) until the 120-hour blood sample following the final dose of study drug, resulting in an 18-day confinement period for subjects in Group I and a 25-day confinement period for Group II. Between the completion of Group I and the start of Group II, an interim safety and pharmacokinetic analysis was performed. Based on the results of the interim analyses, the dose level for investigation in Group II was determined.
Two MDI dosage strengths were used corresponding to the same formulations used in Example 1: one delivering 0.3 mg delta-9-THC (or placebo) per actuation and one delivering 1.2 mg delta-9-THC (or placebo) per actuation. The MDI consisted of a pressurized (via propellants) container and a metered-dose valve. The propellants provided the necessary force to expel the drug, and also acted as a solvent and diluent. The canister unit was provided within a mouthpiece (oral adapter), to expel an exact amount of drug, in the proper particle size distribution, upon each actuation. Two basic formulations containing 0.3 and 1.2 mg of delta-9-THC per 50 μL were developed with propellant 1,1,1,2 tetrafluoroethane 134a (HFA 134a), and ethanol as solvent. The formulations were made in accordance with the composition used in Example 1.
Whole blood samples were collected according to the assessment flowchart in EDTA tubes through venepuncture or indwelling catheter. Samples were immediately placed on ice and subsequently centrifuged within 30 minutes at 1,500 g for 10 minutes. Plasma was transferred into a 5 ml screw cap polypropylene tube, stoppered and stored at below minus 20° C. until transfer to the analytical laboratory for analysis. […] The measurement ranges were 0.05-30 ng/ml for delta-9-THC, 0.04-30 ng/ml for 11-OH-THC, and 0.25-10 ng/ml for THC-COOH.
For Example 2: The statistical analysis encompassed an exploratory analysis of the single and multiple dose pharmacokinetics and dose proportionality of two dose levels of inhaled delta-9-THC in healthy subjects. Descriptive statistics included number of subjects, mean, standard deviation, coefficient of variation (%) and geometric mean for all pharmacokinetic parameters.
The exploratory analysis was performed on the logarithms of the dose-normalized pharmacokinetic parameters AUC(0-inf), AUC(0-t), AUC(0-τ) and Cmax. Dose proportionality was tested both at single dose and at multiple dose (steady state) by comparing the dose groups for all pharmacokinetic parameters by an analysis of variance with dose as fixed effect.
Dose proportionality was tested by the contrast between the dose groups. For this contrast on the logarithmic scale, p-values were given. After anti-logarithmic transformation, the resultant ratios of geometric means and 90% confidence intervals were given.
Accumulation was tested by comparing the steady state values for AUC(0-τ) with the single dose values for AUC(0-τ) by a mixed model analysis of variance with dose and day (with levels single dose and steady state) as fixed effects and subject within dose as random effect.

[1] = inhaled, 1.2 mg, Arithmetic Mean (SD), 1.2 mg m.d., Day 12, Group I
[2] = inhaled, 1.2 mg, Arithmetic Mean (SD), 1.2 mg s.d., Day 1
[3] = inhaled, 1.2 mg, Geometric Mean (Range), 1.2 mg s.d., Day 1
[4] = inhaled, 3.6 mg, Arithmetic Mean (SD), 3.6 mg m.d., Day 19, Group II
[5] = inhaled, 3.6 mg, Arithmetic Mean (SD), 3.6 mg s.d., Day 1
[6] = inhaled, 3.6 mg, Geometric Mean (Range), 3.6 mg s.d., Day 1

CCCCCc1cc(O)c2c(c1)OC(C)(C)[C@@H]1CCC(C)=C[C@@H]21 [delta-9-THC, delta-9-tetrahydrocannabinol]
achievement of steady state (1.2 mg delta-9-THC three times daily): apparently reached after six days of dosing | accumulation during multiple dosing (8-hours dosing interval): no statistically significant accumulation | Ratio AUC(0-8) m.d./AUC(0-8) s.d. (Accumulation factor), Mean (Group I, 1.2 mg): 0.85 | Ratio AUC(0-8) m.d./AUC(0-inf) s.d. (Linearity), Mean (Group I, 1.2 mg): 0.79 | Ratio AUC(0-8) m.d./AUC(0-8) s.d. (Accumulation factor), Mean (Group II, 3.6 mg): 1.15 | Ratio AUC(0-8) m.d./AUC(0-inf) s.d. (Linearity), Mean (Group II, 3.6 mg): 1.02 | dose proportionality: geometric mean ratio (3.6 mg:1.2 mg) of dose-normalized AUC(0-8) (90% confidence interval) (Multiple dose): 1.10 (0.55-2.18) | dose proportionality: geometric mean ratio (3.6 mg:1.2 mg) of dose-normalized Cmax (90% confidence interval) (Multiple dose): 1.81 (0.52-6.24) | dose proportionality: geometric mean ratio (3.6 mg:1.2 mg) of dose-normalized AUC(0-8) (90% confidence interval) (Single dose): 0.77 (0.50-1.18)* | dose proportionality: geometric mean ratio (3.6 mg:1.2 mg) of dose-normalized AUC(0-inf) (90% confidence interval) (Single dose): 0.79 (0.51-1.23) | dose proportionality: geometric mean ratio (3.6 mg:1.2 mg) of dose-normalized AUC(0-t) (90% confidence interval) (Single dose): 0.81 (0.52-1.25) | dose proportionality: geometric mean ratio (3.6 mg:1.2 mg) of dose-normalized Cmax (90% confidence interval) (Single dose): 0.71 (0.38-1.37) | dose proportionality of pharmacokinetic parameters (after single or multiple dose administration): not found to deviate significantly | plasma concentration-time curve, elimination profile (both dose levels): at least a bi-phasic elimination profile | systemic absorption (both dose levels, inhaled): rapid systemic absorption | AUC(0-t) [1]: 5.74 ng·h/mL | AUC(0-t) [2]: 6.61 ng·h/mL | AUC(0-t) (inhaled, 1.2 mg, Geometric Mean (Range), 1.2 mg m.d., Day 12, Group I): 4.52 ng·h/mL | AUC(0-t) [3]: 6.1 ng·h/mL | AUC(0-inf) [2]: 7.14 ng·h/mL | AUC(0-inf) [3]: 6.55 ng·h/mL | Cmax [1]: 12.3 ng/mL | Cmax (inhaled, 1.2 mg, Arithmetic Mean (SD), 1.2 mg s.d., Day 1, plasma): 24 ng/mL | Cmax (inhaled, 1.2 mg, Geometric Mean (Range), 1.2 mg m.d. (three times daily), Day 12, Group I): 6.9 ng/mL | Cmax (inhaled, 1.2 mg, Geometric Mean (Range), 1.2 mg s.d., Day 1, plasma): 19.7 ng/mL | half-life (inhaled, 1.2 mg, terminal elimination half-life, multiple dosing): 24 h | Tmax (inhaled, 1.2 mg, tmax, Arithmetic Mean (SD), 1.2 mg m.d., Day 12, Group I): 3.6 min | Tmax (inhaled, 1.2 mg, tmax, Arithmetic Mean (SD), 1.2 mg s.d., Day 1): 2.4 min | Tmax (inhaled, 1.2 mg, tmax, median (range), 1.2 mg m.d., Day 12, Group I): 3.6 min | Tmax (inhaled, 1.2 mg, tmax, median (range), 1.2 mg s.d., Day 1): 1.8 min | half-life (inhaled, 1.2 mg, t½, Arithmetic Mean (SD), 1.2 mg m.d., Day 12, Group I): 29.1 h | half-life (inhaled, 1.2 mg, t½, Arithmetic Mean (SD), 1.2 mg s.d., Day 1): 4.02 h | half-life (inhaled, 1.2 mg, t½, Geometric Mean (Range), 1.2 mg m.d., Day 12, Group I): 25.3 h | half-life (inhaled, 1.2 mg, t½, Geometric Mean (Range), 1.2 mg s.d., Day 1): 3.39 h | AUC(0-t) [4]: 15.8 ng·h/mL | AUC(0-t) [5]: 14.7 ng·h/mL | AUC(0-t) (inhaled, 3.6 mg, Geometric Mean (Range), 3.6 mg m.d., Day 19, Group II): 14.9 ng·h/mL | AUC(0-t) [6]: 14 ng·h/mL | AUC(0-inf) [5]: 16.3 ng·h/mL | AUC(0-inf) [6]: 15.6 ng·h/mL | Cmax [4]: 40.4 ng/mL | Cmax (inhaled, 3.6 mg, Arithmetic Mean (SD), 3.6 mg s.d., Day 1, plasma): 44.7 ng/mL | Cmax (inhaled, 3.6 mg, Geometric Mean (Range), 3.6 mg m.d. (three times daily), Day 19, Group II): 37.4 ng/mL | Cmax (inhaled, 3.6 mg, Geometric Mean (Range), 3.6 mg s.d., Day 1, plasma): 42.5 ng/mL | half-life (inhaled, 3.6 mg, Terminal elimination half-lives (summary estimate), summary, best estimated after multiple dosing): ~93 h | half-life (inhaled, 3.6 mg, terminal elimination half-life, multiple dosing): 93 h | Tmax (inhaled, 3.6 mg, tmax, Arithmetic Mean (SD), 3.6 mg m.d., Day 19, Group II): 2.4 min | Tmax (inhaled, 3.6 mg, tmax, Arithmetic Mean (SD), 3.6 mg s.d., Day 1): 4.8 min | Tmax (inhaled, 3.6 mg, tmax, median (range), 3.6 mg m.d., Day 19, Group II): 1.8 min | Tmax (inhaled, 3.6 mg, tmax, median (range), 3.6 mg s.d., Day 1): 4.8 min | half-life (inhaled, 3.6 mg, t½, Arithmetic Mean (SD), 3.6 mg m.d., Day 19, Group II): 94.8 h | half-life (inhaled, 3.6 mg, t½, Arithmetic Mean (SD), 3.6 mg s.d., Day 1): 6.41 h | half-life (inhaled, 3.6 mg, t½, Geometric Mean (Range), 3.6 mg m.d., Day 19, Group II): 92.9 h | half-life (inhaled, 3.6 mg, t½, Geometric Mean (Range), 3.6 mg s.d., Day 1): 6.01 h | Tmax (inhaled, Tmax range, both dose levels, after single and multiple dose administration): 1.8 to 4.8 min | ratios of AUC(0-8) after multiple dosing versus AUC(0-inf) after single dose (linearity) (in vivo): did not deviate clearly or significantly from unity | Cmax and AUC values versus dose (single and multiple dose administration, 1.2 and 3.6 mg): Dose-related increases
